The results in this text go back to DBAASP.

≈ marks a conversion by molar mass, not a printed value. Where “and” joins values, the source holds several entries; their conditions need not be identical. Equal values may be shown once.

Some test systems named below: Bacillus subtilis 168 HT; Escherichia coli MG1655; Candida albicans SC5314; Bacillus subtilis.
Experiment in all cases: ≥ marks a high value that may be exact or a test limit, other limits are often not marked, values filed in µg/mL are converted to µM
Experiment [1] concerns Escherichia coli NCTC 10418.
Experiment [2] deals with Staphylococcus aureus NCTC 10788.
Experiment [3] deals with Candida albicans NCPF 1467.
Experiment [4] deals with Escherichia coli ATCC 11229.
For experiment [5], the system named is Klebsiella pneumoniae ATCC 13866.
Experiment [6] concerns Escherichia coli ATCC 35218.
Experiment [7] has as its system Staphylococcus aureus ATCC 25923.
Experiment [8] concerns Staphylococcus aureus ATCC 29213.
Experiment [9] concerns Staphylococcus aureus ATCC 33591.
For experiment [10], the system named is Staphylococcus epidermidis ATCC 12228.
Experiment [11] deals with Pseudomonas aeruginosa ATCC 27853.
Experiment [12] concerns Bacillus subtilis KCTC 2217.
Experiment [13] relates to Acinetobacter baumannii KCTC 2508.
Experiment [14] relates to Streptococcus mutans JCM 5705.
In experiment [15] the test system is Porphyromonas gingivalis ATCC 33277.
Experiment [16] concerns Cutibacterium acnes JCM 6473.
For experiment [17], the system named is Candida albicans NBRC 1385.
The subject of experiment [18] is Staphylococcus aureus ATCC 2592.
Experiment [19] concerns Escherichia coli ATCC 25922.

As a reminder, the MIC is the lowest concentration that inhibits growth of the organism. A low value points to greater potency. `CC[C@H](C)[C@H](NC(=O)[C@H](CC(C)C)NC(=O)[C@@H](N)CS)C(=O)N[C@@H](CCSC)C(=O)N[C@@H](CCCCN)C(=O)N[C@H](C(=O)N[C@@H](CCCN=C(N)N)C(=O)N[C@@H](CCCN=C(N)N)C(=O)N[C@@H](CCCCN)C(=O)N[C@@H](CCCCN)C(=O)O)C(C)C` [CLIMKVRRKK]: the minimal inhibitory concentration (MIC) against Bacillus subtilis 168 HT is 12.6 µM (≈ 16.1 µg/mL); against Escherichia coli MG1655, at least 100 µM.
For the compound `CC[C@H](C)[C@H](NC(=O)[C@H](C)NC(=O)[C@H](CC(N)=O)NC(=O)[C@@H]1CCCN1C(=O)[C@@H](NC(=O)[C@H](CC(C)C)NC(=O)[C@H](CO)NC(=O)[C@H](Cc1ccccc1)NC(=O)[C@H](CC(C)C)NC(=O)[C@@H](N)Cc1ccccc1)[C@@H](C)CC)C(=O)N[C@@H](CO)C(=O)NCC(=O)N[C@@H](CC(C)C)C(=O)N[C@@H](CC(C)C)C(=O)N[C@@H](CO)C(=O)N[C@@H](C)C(=O)N[C@@H](Cc1ccccc1)C(=O)N[C@H](C=O)CCCCN` [FLFSLIPNAISGLLSAFK], the values for the MIC in experiment [1], in experiment [2] and in experiment [3] were at least 250 µM, 8 µM (≈ 15.4 µg/mL) and 16 µM (≈ 30.8 µg/mL), respectively.
Consider `CC[C@H](C)[C@H](NC(=O)[C@@H](NC(=O)[C@H](CO)NC(=O)CN)C(C)C)C(=O)N[C@@H](CCCN=C(N)N)C(=O)N[C@@H](C)C(=O)N[C@@H](CC(C)C)C(=O)N[C@@H](CCSC)C(=O)N[C@@H](CCCN=C(N)N)C(=O)N[C@@H](CCSC)C(=O)N[C@@H](Cc1ccccc1)C(=O)N[C@@H](C)C(=O)N[C@@H](CCCN=C(N)N)C(=O)N[C@@H](CC(C)C)C(=O)N[C@H](C(=O)NCC(=O)O)C(C)C` [GSVIRALMRMFARLVG], for which the MIC in experiment [4] was at least 36 µM; in experiment [5], at least 36 µM; in experiment [6], at least 36 µM; in experiment [7], 36 µM (≈ 64 µg/mL); in experiment [8], 36 µM (≈ 64 µg/mL); in experiment [9], 4.5 µM (≈ 8 µg/mL). Besides, the MIC in experiment [10] and in [11] was 4.5 µM (≈ 8 µg/mL) in each case.
For the compound `CC(C)C[C@H](NC(=O)[C@H](CCCCN)NC(=O)[C@H](CCCCN)NC(=O)[C@H](CC(C)C)NC(=O)[C@H](CC(C)C)NC(=O)[C@H](CCCCN)NC(=O)[C@H](CCCCN)NC(=O)[C@H](CC(C)C)NC(=O)[C@H](CC(C)C)NC(=O)[C@@H]1CCCN1C(=O)[C@H](CCCCN)NC(=O)[C@H](CCCCN)NC(=O)[C@H](CC(C)C)NC(=O)[C@H](CC(C)C)NC(=O)[C@H](CCCCN)NC(=O)[C@@H](N)CCCCN)C(N)=O` [KKLLKKPLLKKLLKKL], the MIC in experiment [7] was 1.56 µM and > 0.78 µM; in [12], 1.56 µM (≈ 3.01 µg/mL); in experiment [13], 3.13 µM (≈ 6.05 µg/mL).
On to `CC(C)C[C@H](NC(=O)[C@H](CCCCN)NC(=O)[C@H](CCCCN)NC(=O)[C@H](CC(C)C)NC(=O)[C@H](CC(C)C)NC(=O)[C@H](CCCCN)NC(=O)[C@H](CCCCN)NC(=O)[C@H](CC(C)C)NC(=O)[C@H](CC(C)C)NC(=O)[C@@H]1CCCN1C(=O)[C@H](CCCCN)NC(=O)[C@H](CCCCN)NC(=O)[C@H](CC(C)C)NC(=O)[C@@H](N)CC(C)C)C(N)=O` [LLKKPLLKKLLKKL], for which the MIC in [7] was 1.56 µM and > 0.78 µM; in experiment [12], 1.56 µM (≈ 2.61 µg/mL); in [13], 12.5 µM (≈ 20.9 µg/mL).
`CSCC[C@H](NC(=O)[C@H](CC(C)C)NC(=O)[C@H](CC(C)C)NC(=O)[C@H](CCCCN)NC(=O)[C@H](CCCN=C(N)N)NC(=O)[C@H](CCC(=O)O)NC(=O)[C@H](CC(C)C)NC(=O)[C@H](CC(C)C)NC(=O)[C@H](CO)NC(=O)[C@@H](N)CCSC)C(=O)N[C@@H](Cc1cnc[nH]1)C(=O)N[C@@H](Cc1ccccc1)C(=O)N[C@@H](CC(C)C)C(=O)N[C@@H](CCCN=C(N)N)C(=O)N[C@H](C(=O)O)C(C)C` [MSLLERKLLMHFLRV]: the MIC in experiment [4] was at least 33.9 µM; in [5] it was at least 33.9 µM; in [6], at least 67.9 µM; in experiment [7], 8.48 µM (≈ 16 µg/mL); in [9] it was 8.48 µM (≈ 16 µg/mL); in experiment [10] it was 8.48 µM (≈ 16 µg/mL). The minimal inhibitory concentration (MIC) in experiment [11] amounted to 4.24 µM (≈ 8 µg/mL).
Consider `CC[C@H](C)[C@H](NC(=O)[C@@H](N)CCCN=C(N)N)C(=O)N[C@@H](CCCN=C(N)N)C(=O)N[C@@H](CC(C)C)C(=O)N[C@@H](CC(C)C)C(=O)N[C@@H](CCC(N)=O)C(=O)N[C@@H](CCCN=C(N)N)C(=O)N[C@@H](Cc1ccccc1)C(=O)N[C@@H](CC(N)=O)C(=O)N[C@@H](CCCCN)C(=O)N[C@@H](CCCN=C(N)N)C(=O)O` [RIRLLQRFNKR], for which the MIC in experiment [14] was at least 1020 µM; in experiment [15], at least 256 µM; in [16], at least 1020 µM; in [17] it was at least 512 µM.
For `C[C@@H](O)[C@H](NC(=O)[C@H](CCCCN)NC(=O)[C@H](CCCCN)NC(=O)[C@H](CO)NC(=O)[C@H](CCCN=C(N)N)NC(=O)[C@H](Cc1c[nH]c2ccccc12)NC(=O)[C@H](CCC(=O)O)NC(=O)[C@H](CCCN=C(N)N)NC(=O)[C@H](CO)NC(=O)[C@H](CCCCN)NC(=O)[C@@H](N)CCCN=C(N)N)C(=O)N[C@@H](CCC(N)=O)C(=O)N1CCC[C@H]1C(=O)N[C@@H](CCCN=C(N)N)C(=O)N[C@@H](CCCN=C(N)N)C(=O)N1CCC[C@H]1C(=O)N[C@@H](CCCN=C(N)N)C(=O)O` [RKSREWRSKKTQPRRPR], the MIC in experiment [14], in experiment [15], in [16] and in [17] was at least 1020 µM in each case.
Regarding `CC(C)[C@H](N)C(=O)N[C@@H](CCCCN)C(=O)N[C@@H](CCCN=C(N)N)C(=O)N[C@@H](Cc1c[nH]c2ccccc12)C(=O)N[C@@H](CCCCN)C(=O)N[C@@H](CCCCN)C(=O)N[C@@H](Cc1c[nH]c2ccccc12)C(=O)N[C@@H](CCCCN)C(=O)N[C@@H](CCCN=C(N)N)C(=O)N[C@@H](CCCCN)C(=O)N[C@@H](Cc1c[nH]c2ccccc12)C(=O)N[C@@H](CCCCN)C(=O)N[C@@H](CCCCN)C(=O)N[C@@H](Cc1c[nH]c2ccccc12)C(=O)N[C@H](C(N)=O)C(C)C` [VKRWKKWKRKWKKWV], the MIC in [18] stood at 2.8 µM (≈ 6.08 µg/mL); in the experiment with Candida albicans SC5314, 2.8 µM (≈ 6.08 µg/mL); in experiment [19] it was 1.6 µM (≈ 3.47 µg/mL); in the experiment with Bacillus subtilis, 2.8 µM (≈ 6.08 µg/mL).
